Measurements: patent US20150315188A1, “COMPOUNDS AND METHODS FOR TREATMENT OF HYPERTENSION” (MEDIVATION TECHNOLOGIES, INC., priority 2012, published 2015)

Tests used:
[1] = target: T1, Human adrenergic α2B receptor (Homo sapiens, UniProt P18089); experiment: Radioligand binding, adrenergic α2B (Protocol Group A); set-up: expressed in transfected cells; host or cells: CHO-K1; details: 0.03 μM compound, [3H]Rauwolscine; for percent inhibition of specific binding, Adrenergic α2B: 0.03 µM; for inhibition at 0.03 µM: read-out: percent inhibition of specific binding, Adrenergic α2B
T1 sequence (P18089 1-450): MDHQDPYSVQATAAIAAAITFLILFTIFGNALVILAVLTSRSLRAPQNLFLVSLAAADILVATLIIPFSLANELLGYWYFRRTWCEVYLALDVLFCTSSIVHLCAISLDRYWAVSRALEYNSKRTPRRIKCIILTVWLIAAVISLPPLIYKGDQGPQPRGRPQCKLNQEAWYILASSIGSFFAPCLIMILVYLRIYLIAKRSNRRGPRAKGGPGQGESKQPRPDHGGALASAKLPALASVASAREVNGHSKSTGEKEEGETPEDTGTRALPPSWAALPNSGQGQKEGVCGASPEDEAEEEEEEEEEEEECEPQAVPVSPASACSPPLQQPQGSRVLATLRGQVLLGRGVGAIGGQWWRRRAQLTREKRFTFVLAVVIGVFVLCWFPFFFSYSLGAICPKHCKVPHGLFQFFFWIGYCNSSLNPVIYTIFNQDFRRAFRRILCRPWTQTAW
Protocol: To evaluate in radioligand binding assays the activity of compounds of the invention, human recombinant adrenergic α2B receptor expressed in Chinese hamster ovary (CHO) K1 cells (Uhlen, S. et al, Eur. J. Pharmacol. 343(1):93, 1998) in a modified Tris-HCl buffer (50 mM Tris-HCl, pH 7.4, 12.5 mM MgCl2, 1 mM EDTA, 0.2% BSA) was used. Compounds of the invention were incubated with 2.5 nM [3H]Rauwolscine for 60 min at 25° C. Non-specific binding was estimated in the presence of 10 μM Prazosin. Receptor proteins were filtered and washed, the filters were then counted to determine [3H]Rauwolscine specifically bound. Compounds were screened at 1 μM or lower, using 1% DMSO as vehicle. Compounds of the invention were tested in this biochemical assay and percent inhibition of specific binding was determined. Biochemical assay results are presented as the percent inhibition of specific binding in Table B1a.

[2] = target: T2, rat adrenergic α1B receptor (Rattus norvegicus, UniProt P15823); experiment: Radioligand binding, adrenergic α1B (Protocol Group A); details: 0.1 μM compound, [3H]Prazosin; for percent inhibition of specific binding, Adrenergic α1B: 0.1 µM; for inhibition at 0.1 µM: read-out: percent inhibition of specific binding, Adrenergic α1B
T2 construct: rat adrenergic α1B receptor obtained from Wistar Rat liver; from tissue; host or cells: Wistar rat liver
T2 sequence (P15823 1-515): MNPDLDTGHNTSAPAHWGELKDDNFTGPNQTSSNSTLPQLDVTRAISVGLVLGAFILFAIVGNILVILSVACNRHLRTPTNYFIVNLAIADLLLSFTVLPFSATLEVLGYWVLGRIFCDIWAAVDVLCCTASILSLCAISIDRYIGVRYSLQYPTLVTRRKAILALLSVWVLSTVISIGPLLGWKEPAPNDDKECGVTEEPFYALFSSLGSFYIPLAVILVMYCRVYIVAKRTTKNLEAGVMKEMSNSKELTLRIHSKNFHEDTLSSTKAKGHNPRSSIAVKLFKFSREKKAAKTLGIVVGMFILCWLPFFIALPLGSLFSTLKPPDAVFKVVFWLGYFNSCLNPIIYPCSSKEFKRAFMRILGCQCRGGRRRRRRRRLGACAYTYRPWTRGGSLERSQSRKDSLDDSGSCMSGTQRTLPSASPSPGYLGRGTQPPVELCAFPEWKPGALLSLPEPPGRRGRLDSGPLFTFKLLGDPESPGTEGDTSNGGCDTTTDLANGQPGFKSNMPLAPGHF
Protocol: To evaluate in radioligand binding assays the activity of compounds of the invention, rat adrenergic α1B receptor obtained from Wistar Rat liver (Garcia-S'ainz, J. et al, Biochem. Biophys. Res. Commun. 186:760, 1992; Michel, A. et al, Br. J. Pharmacol. 98:883, 1989) in a modified Tris-HCl buffer (50 mM Tris-HCl buffer, pH 7.4, 0.5 mM EDTA) was used. Compounds of the invention were incubated with 0.25 nM [^3H]Prazosin for 60 min at 25° C. Non-specific binding was estimated in the presence of 10 μM phentolamine. Receptor proteins were filtered and washed, the filters were then counted to determine [^3H]Prazosin specifically bound. Compounds were screened at 1 μM or lower, using 1% DMSO as vehicle. Compounds of the invention were tested in this biochemical assay and percent inhibition of specific binding was determined. Biochemical assay results are presented as the percent inhibition of specific binding in Table B1a.

[3] = target: T3, Human adrenergic α2A receptor (Homo sapiens, UniProt P08913); experiment: Radioligand binding, adrenergic α2A (Protocol Group A); set-up: expressed in transfected cells; host or cells: insect Sf9 cells; details: 0.1 μM compound; for percent inhibition of specific binding, Adrenergic α2A: [3H]MK-912, 0.1 µM; for inhibition at 0.1 µM: [3H]MK-912, read-out: percent inhibition of specific binding, Adrenergic α2A
T3 sequence (P08913 1-465): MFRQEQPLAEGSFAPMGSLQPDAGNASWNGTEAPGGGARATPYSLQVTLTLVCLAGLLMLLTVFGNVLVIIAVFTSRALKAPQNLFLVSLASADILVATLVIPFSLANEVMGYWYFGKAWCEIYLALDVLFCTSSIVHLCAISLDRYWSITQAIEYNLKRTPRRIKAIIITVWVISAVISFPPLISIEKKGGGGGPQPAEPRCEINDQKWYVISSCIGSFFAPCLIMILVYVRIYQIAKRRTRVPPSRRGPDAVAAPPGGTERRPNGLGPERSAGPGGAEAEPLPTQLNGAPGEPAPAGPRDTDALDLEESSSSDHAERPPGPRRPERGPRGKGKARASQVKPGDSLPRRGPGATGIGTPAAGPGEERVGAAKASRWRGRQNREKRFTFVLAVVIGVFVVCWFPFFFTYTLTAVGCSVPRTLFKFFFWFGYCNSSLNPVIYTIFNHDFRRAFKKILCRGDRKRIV
Protocol: To evaluate in radioligand binding assays the activity of compounds of the invention, human recombinant adrenergic α2A receptor expressed in insect Sf9 cells (Uhlen, S. et al, J. Pharmacol. Exp. Ther. 271:1558, 1994) in a modified Tris-HCl buffer (50 mM Tris-HCl, pH 7.4, 12.5 mM MgCl2, 2 mM EDTA) was used. Compounds of invention were incubated with 1 nM [^3H]MK-912 for 60 min at 25° C. MK912 is (2S-trans)-1,3,4,5′,6,6′,7,12b-octahydro-1′,3′-dimethyl-spiro[2H-benzofuro[2,3-a]quinolizine-2,4′(1′H)-pyrimidin]-2′(3′H)-one hydrochloride. Non-specific binding was estimated in the presence of 10 μM WB-4101 (2-(2,6-Dimethoxyphenoxyethyl)aminomethyl-1,4-benzodioxane hydrochloride). Receptor proteins were filtered and washed, the filters were then counted to determine [^3H]MK-912 specifically bound. Compounds were screened at 1 μM or lower, using 1% DMSO as vehicle. Compounds of the invention were tested in this biochemical assay and percent inhibition of specific binding was determined. Biochemical assay results are presented as the percent inhibition of specific binding in Table B1a.

Row | Compound | percent inhibition of specific binding, Adrenergic α2B [1] | percent inhibition of specific binding, Adrenergic α1B [2] | percent inhibition of specific binding, Adrenergic α2A [3] | inhibition at 0.03 µM [1] | inhibition at 0.1 µM [2] | inhibition at 0.1 µM [3]
1 | Cc1ccc2c(c1)c1c(n2CCc2cncc(S(C)(=O)=O)c2)CCN(C)C1 [Compound No. 1, 2,8-dimethyl-5-(2-(5-(methylsulfonyl)pyridin-3-yl)ethyl)-2,3,4,5-tetrahydro-1H-pyrido[4,3-b]indole] |  |  |  | 64% | 18% | 3%
2 | Cc1ccc2c(c1)c1c(n2CC(OCCCC(=O)O)c2ccncc2)CCN(C)C1 (stereo not drawn) [compound 3, 4-(2-(2,8-dimethyl-3,4-dihydro-1H-pyrido[4,3-b]indol-5 (2H)-yl)-1-(pyridin-4-yl)ethoxy)butanoic acid] |  |  |  | 7% | -5% | 5%
3 | Cc1ccc2c(c1)c1c(n2CC(OC(=O)N2CCCC2)c2ccncc2)CCN(C)C1 (stereo not drawn) [compound 4, 2-(2,8-dimethyl-3,4-dihydro-1H-pyrido[4,3-b]indol-5(2H)-yl)-1-(pyridin-4-yl)ethyl pyrrolidine-1-carboxylate] | 78% | 27% | 33% |  |  | 
4 | Cc1ccc2c(c1)c1c(n2CC(OC(=O)N2CCN(C)CC2)c2ccncc2)CCN(C)C1 (stereo not drawn) [compound 5, 2-(2,8-dimethyl-3,4-dihydro-1H-pyrido[4,3-b]indol-5 (2H)-yl)-1-(pyridin-4-yl)ethyl 4-methylpiperazine-1-carboxylate] |  |  |  | 13% | 5% | 10%
5 | Cc1ccc2c(c1)c1c(n2CC(OC(N)=O)c2ccncc2)CCN(C)C1 (stereo not drawn) [compound 8, 2-(2,8-dimethyl-3,4-dihydro-1H-pyrido[4,3-b]indol-5 (2H)-yl)-1-(pyridin-4-yl)ethyl carbamate] |  |  |  | 42% | 1% | 11%
6 | Cc1ccc2c(c1)c1c(n2C(CC(C)(C)C)C(=O)c2ccncc2)CCN(C)C1 (stereo not drawn) [compound 9, 2-(2,8-dimethyl-3,4-dihydro-1H-pyrido[4,3-b]indol-5 (2H)-yl)-4,4-dimethyl-1-(pyridin-4-yl)pentan-1-one] |  |  |  | 107% | 77% | 85%

Now from value to compound:

Row | percent inhibition of specific binding, Adrenergic α2B [1] | percent inhibition of specific binding, Adrenergic α1B [2] | percent inhibition of specific binding, Adrenergic α2A [3] | inhibition at 0.03 µM [1] | inhibition at 0.1 µM [2] | inhibition at 0.1 µM [3] | Compound
7 | 16% | −5% | −1% |  |  |  | Cc1ccc(C(F)Cn2c3c(c4cccnc42)C2CCCN2CC3)cn1 (single isomer, unassigned) [10b]
8 |  |  |  | 93% | 61% | 29% | Cc1ccc2c(c1)c1c(n2CC(C)(O)c2ccc(F)nc2)CCN2CCCC12 (stereo not drawn) [6b]
9 |  |  |  | 108% | 99% | 93% | Cc1ccc2c(c1)c1c(n2/C=C/c2ccncc2)CCN2CCCC12 (stereo not drawn) [Compound No. 7, (E)-10-methyl-7-(2-(pyridin-4-yl)vinyl)-2,3,5,6,7,11c-hexahydro-1H-indolizino[7,8-b]indole]
